Assay results taken from patent publication US10023836B2, “Medium for yeasts” (YAMAGUCHI UNIVERSITY, priority 2012, dated 2018).
Counter-ions that a name gives are not always drawn.

Experiments:
[1] = system: Candida glabrata BY23876 strain; test: Nutritional requirements in AYD culture medium (FIG. 50); type: cell-based; conditions: component eliminated from AYD culture medium
Procedure: In a case where no special provisions are made, a procedure for a cultivation experiment using the culture medium to be investigated for proliferation was such that a yeast undergoing investigation was pre-cultured in a YPD liquid culture medium at 28° C. for 24 hours, after which the yeast was adjusted such that OD600=20. Thereafter, 5 μL of culture solution was inoculated in 5 mL of each culture medium to be investigated, which had been dispensed into L-shaped test tubes (final OD60=0.02); aerobic roller tube culture was performed at 28° C.; and OD was continuously measured with an automatic spectrophotometer (BioPhoto recorder TVS062CA, […]). In addition, OD600 was measured every 15 minutes by a spectrophotometer (Cell density meter co8000, WPA). Hereafter, data is represented by graphs for a case using the automatic spectrophotometer; however, these graphs are primarily used to compare the slope of logarithmic growth phase proliferation curves for each culture medium, and because OD600 is measured without dilution, values where OD600=3 to 3.5 or more may be incorrect.
Nutritional requirements of each of the following yeast strains were investigated in the AYD culture medium, and utility of the AYD culture medium was confirmed. Each of the yeast strains was cultured under identical conditions using the basic culture method described above.

[2] = system: Candida utilis JCM9624 strain; test: Nutritional requirements in AYD culture medium (FIG. 51); type: cell-based; conditions: component eliminated from AYD culture medium
Procedure: (§1) In a case where no special provisions are made, a procedure for a cultivation experiment using the culture medium to be investigated for proliferation was such that a yeast undergoing investigation was pre-cultured in a YPD liquid culture medium at 28° C. for 24 hours, after which the yeast was adjusted such that OD600=20. […] In addition, OD600 was measured every 15 minutes by a spectrophotometer (Cell density meter co8000, WPA). Hereafter, data is represented by graphs for a case using the automatic spectrophotometer; however, these graphs are primarily used to compare the slope of logarithmic growth phase proliferation curves for each culture medium, and because OD600 is measured without dilution, values where OD600=3 to 3.5 or more may be incorrect.
(§2) Each of the yeast strains was cultured under identical conditions using the basic culture method described above.

[3] = system: RAK3599 strain; test: Vitamin and FeCl3 concentration in AKD′ culture medium (FIGS. 22 to 28); type: cell-based, Saccharomyces cerevisiae; conditions: for proliferation at a content of 0: AKD′ culture medium without the substance
Procedure: as §1
Pyridoxine concentration in the AKD′ culture medium was adjusted to 0, 0.004, 0.04, 0.4, 4, and 40 μg/mL, respectively, and proliferation of the RAK3599 strain was investigated.
Pantothenic acid concentration in the AKD′ culture medium was adjusted to 0, 0.004, 0.04, 0.4, 4, and 40 μg/mL, respectively, and proliferation of the RAK3599 strain was investigated.
Thiamine concentration in the AKD′ culture medium was adjusted to 0, 0.004, 0.04, 0.4, 4, and 40 μg/mL, respectively, and proliferation of the RAK3599 strain was investigated.
Nicotinic acid concentration in the AKD′ culture medium was adjusted to 0, 0.004, 0.04, 0.4, 4, and 40 μg/mL, respectively, and proliferation of the RAK3599 strain was investigated.
Myo-inositol concentration in the AKD′ culture medium was adjusted to 0, 0.02 μg/mL, 0.2 μg/mL, 2 μg/mL, 20 μg/mL, and 200 μg/mL, respectively, and proliferation of the RAK 3599 strain was investigated.
FeCl3 concentration in the AKD′ culture medium was adjusted to 0, 0.002, 0.02, 0.2, 2, and 20 μg/mL, respectively, and proliferation of the RAK3599 strain was investigated.

[4] = system: commercially available baker's yeast; test: Investigation of carbon source added instead of glucose in BM culture medium (FIG. 5); type: cell-based; conditions: 2% added singly instead of glucose in BM culture medium, 28° C., 24 hours
Procedure: OD600 was measured after commercially available baker's yeast had been cultivated at 28° C. for 24 hours in a culture medium in which 2% of sugars such as galactose, raffinose, trehalose, fructose, maltose, mannose, sucrose, and ribose, or DNA (negative control) had been added instead of glucose in the BM culture medium.

[5] = system: RAK2683 yeast strain; test: Candidate proliferation factors added to BM culture medium (FIG. 4); type: cell-based, Saccharomyces cerevisiae; conditions: 24 hours
Procedure: Next, the yeast extract (M<5000) was further fractionated and proliferation was tested. […] As the substances having a molecular weight of roughly 500<M<1000, Acetyl-CoA, CoA, yeast RNA (RNA), and NAD were selected; each was added to a BM culture medium; and RAK2683 yeast strain was cultivated for 24 hours, after which OD600 was measured. Moreover, the yeast extract (YE)-added culture medium and YPD culture medium were treated as positive controls.

[6] = system: Saccharomyces cerevisiae RAK3599 strain; test: Glutamine, cysteine and amino acid groups in AYD′ / AYD culture medium (FIGS. 40, 41); type: cell-based
Procedure: For the AYD′ culture medium, an investigation was conducted into glutamine and cysteine concentrations using Saccharomyces cerevisiae RAK3599 strain.

[7] = system: RAK3599 strain; test: Investigation with AID and aY-AID culture medium (FIGS. 29 to 39); type: cell-based, Saccharomyces cerevisiae; conditions: AID culture medium, up to 1% or up to 0.2500%
Procedure: As shown in the following, an investigation was conducted into concentrations of each amino acid and a substitution potential of pantothenic acid for the amino acid in the AID culture medium. A suitable YPD culture medium was used as a control.
Next, the amino acids asparagine, isoleucine, phenylalanine, and valine were each adjusted to a culture medium additive concentration of […], 0.0312%, 0.0625%, 0.1250%, and 0.2500%, and OD600 was measured after 24 hours.
Isoleucine concentration in the aY-AID culture medium was adjusted to 0, 0.01 mg/mL, 0.1 mg/mL, 0.5 mg/mL, and 1 mg/mL, respectively, and proliferation of the RAK3599 strain was investigated.
Phenylalanine concentration in the aY-AID culture medium was adjusted to 0, 0.01, 0.1, 0.5, and 1 mg/mL, respectively, and proliferation of the RAK3599 strain was investigated.
Valine concentration in the aY-AID culture medium was adjusted to 0, 0.01, 0.1, 0.5, and 1 mg/mL, respectively, and proliferation of the RAK3599 strain was investigated.
Serine concentration in the AID culture medium was adjusted to 0, 0.01 mg/mL, 0.1 mg/mL, 0.5 mg/mL, and 1 mg/mL, respectively, and proliferation of the RAK3599 strain was investigated.
Threonine concentration in the AID culture medium was adjusted to 0, 0.01, 0.1, 0.5, and 1 mg/mL, respectively, and proliferation of the RAK3599 strain was investigated.
Asparagine concentration in the AID culture medium was adjusted to 0, 0.01, 0.1, 0.5, and 1 mg/mL, respectively, and proliferation of the RAK3599 strain was investigated.
An investigation was conducted into vitamins contained in the AID culture medium. […]

[8] = system: Candida albicans JCM1542 strain; test: Nutritional requirements in AYD culture medium (FIG. 52); type: cell-based; conditions: component eliminated from AYD culture medium
Procedure: as §1, §2

[9] = system: RAK2683 yeast strain; conditions: glucose not added to BM culture medium; 2% ethanol, 2% glycerol or 0.1 to 2% albumin; 24 hours
Procedure: OD600 was measured after RAK2683 yeast strain had been cultivated for 24 hours in a culture medium in which between 0.1 and 2% albumin had been added to the BM culture medium.

[10] = system: commercially available baker's yeast; test: Aspartic acid swapped with ammonium sulfate, compared with MM and YPD (FIG. 2); type: cell-based; conditions: between 0.5 and 2.0% aspartic acid added
Procedure: In Table 4, a culture medium was prepared in which aspartic acid (Asp), which had the highest value for OD600 after 48 hours, was swapped with ammonium sulfate, and the proliferation of yeast (commercially available baker's yeast) in the MM culture medium and YPD was compared. […] Based on this information, a BM culture medium in which 2% aspartic acid had been added as a nitrogen source to 0.17% YNB and 2% glucose was used as an object of investigation.

[11] = system: RAK2683 yeast strain; test: Investigation of nitrogen source used singly in MM culture medium instead of ammonium sulfate (Table 4); type: cell-based, Saccharomyces cerevisiae; conditions: Table 4 conditions

Cc1ncc(C[n+]2csc(CCO)c2C)c(N)n1 [thiamine, Thiamine hydrochloride]
nutritional requirement of the strain [1]: require
nutritional requirement of the strain [2]: require
preferred concentration ([3]; AKD′ culture medium): around 400 μg/L
proliferation at a content of 0 [3]: A fair degree of proliferation

O=C[C@H](O)[C@H](O)[C@H](O)CO [ribose]
proliferation as carbon source [4]: no proliferation whatsoever

CC(=O)SCCNC(=O)CCNC(=O)[C@H](O)C(C)(C)COP(=O)(O)OP(=O)(O)OC[C@H]1O[C@@H](n2cnc3c(N)ncnc32)[C@H](O)[C@@H]1OP(=O)(O)O [Acetyl-CoA]
proliferation compared with YPD [5]: none of them reaching the proliferation level of YPD

NC(=O)CC[C@H](N)C(=O)O [Glutamine, L-Glutamine]
appropriate concentration ([6]; AYD′ culture medium): 5 g/L
growth ([6]; AYD′ culture medium, glutamine concentration set to 10 times the previous concentration): growth was confirmed to be extremely improved
effect on proliferation when added at high concentrations [7]: proliferation was confirmed to be inhibited

O=S(=O)([O-])[O-].[Zn+2] [Zn2+, zinc sulfate]
nutritional requirement of the strain [8]: preferable for proliferation
nutritional requirement of the strain [2]: preferable for proliferation

N[C@@H](CS)C(=O)O [Cysteine, L-Cysteine]
appropriate concentration ([6]; AYD′ culture medium): around 0.01 g/L
effect on proliferation when added at high concentrations [7]: proliferation was confirmed to be inhibited

OC[C@H]1O[C@H](O[C@H]2O[C@H](CO)[C@@H](O)[C@H](O)[C@H]2O)[C@H](O)[C@@H](O)[C@@H]1O [trehalose]
proliferation as carbon source [4]: no proliferation whatsoever

OCC(O)CO [glycerol]
proliferation as carbon source [9]: almost no proliferation

CSCC[C@H](N)C(=O)O [Methionine, L-Methionine]
proliferation when eliminated from the AYD culture medium ([6]; amino acid group or individual amino acid of the AY5 group eliminated): proliferation decreases
effect on proliferation when added at high concentrations [7]: proliferation was confirmed to be inhibited

albumin
proliferation as carbon source [9]: almost no proliferation

CCO [ethanol]
proliferation as carbon source [9]: almost no proliferation

CC(C)(COP(=O)(O)OP(=O)(O)OC[C@H]1O[C@@H](n2cnc3c(N)ncnc32)[C@H](O)[C@@H]1OP(=O)(O)O)[C@@H](O)C(=O)NCCC(=O)NCCS [CoA]
proliferation compared with YPD [5]: none of them reaching the proliferation level of YPD

N[C@@H](CC(=O)[O-])C(=O)[O-].O.[Na+].[Na+] [Aspartic acid, L-Aspartic acid sodium salt monohydrate]
proliferation compared with ammonium sulfate-added culture medium [10]: proliferation markedly improved over that of a culture medium to which ammonium sulfate had been added
proliferation when added singly as nitrogen source [11]: favorable proliferation

O=C(O)c1cccnc1 [nicotinic acid]
nutritional requirement of the strain [1]: require
concentration at which proliferation reached a maximum value ([3]; AKD′ culture medium): 4 µg/mL
concentration at which proliferation was inhibited ([3]; AKD′ culture medium): 40 µg/mL
preferred concentration ([3]; AKD′ culture medium): around 4000 μg/L
proliferation at a content of 0 [3]: A significant degree of proliferation
OD600 after 24 hours ([3]; AKD′ culture medium, nicotinic acid 0 μg/mL): 9
OD600 after 24 hours ([3]; AKD′ culture medium, nicotinic acid 0.004 μg/mL): 10
OD600 after 24 hours ([3]; AKD′ culture medium, nicotinic acid 0.04 μg/mL): 10
OD600 after 24 hours ([3]; AKD′ culture medium, nicotinic acid 0.4 μg/mL): 9
OD600 after 24 hours ([3]; AKD′ culture medium, nicotinic acid 4 μg/mL): 10
OD600 after 24 hours ([3]; AKD′ culture medium, nicotinic acid 40 μg/mL): 8

NC(=O)c1ccc[n+]([C@@H]2O[C@H](COP(=O)([O-])OP(=O)(O)OC[C@H]3O[C@@H](n4cnc5c(N)ncnc54)[C@H](O)[C@@H]3O)[C@@H](O)[C@H]2O)c1 [NAD]
proliferation compared with YPD [5]: none of them reaching the proliferation level of YPD

O=C(O)CCCC[C@@H]1SC[C@@H]2NC(=O)N[C@@H]21 [biotin]
nutritional requirement of the strain [8]: require
nutritional requirement of the strain [1]: require
nutritional requirement of the strain [2]: not require
concentration at which proliferation was slightly inhibited ([3]; AKD′ culture medium): 200 µg/L
preferred concentration ([3]; AKD′ culture medium): around 2 μg/L
proliferation at a content of 0 [3]: Almost no proliferation

Cc1ncc(CO)c(CO)c1O.Cl [pyridoxine, Pyridoxine hydrochloride]
nutritional requirement of the strain [1]: require
preferred concentration ([3]; AKD′ culture medium): around 400 μg/L
proliferation at a content of 0 [3]: A fair degree of proliferation
